Test results as given in publication PMC5940854, “Nitrothiophene carboxamides, a novel narrow spectrum antibacterial series: Mechanism of action and Efficacy” (Scientific Reports, 2018).
Values after ≈ are worked out from the molar mass of the structure shown.

Legend:
[1] = test system: E. coli acrD knockout strain; assay: MIC, efflux pump knockout acrD; format: cell-based; conditions: Escherichia coli, read-out: MIC acrD
Method: (§1) The inoculum used for all the experiments is derived from a single seed lot that is maintained as glycerol stocks at −80 °C and are sub cultured on LB plate for isolated colonies. Single colony of each strain is grown in M9 medium. All test compound stocks and dilutions are prepared in DMSO. Serial two-fold dilutions of compounds are prepared separately, with the concentrations ranging from 2 mg/mL to 0.015 mg/mL. To 150 µl (3–7 × 10^5 CFU/ml) of bacterial culture in 96 well microtitre plates, 3 μL compound from each of the dilutions is added to respective wells to obtain final concentrations ranging from 40 µg/mL to 0.3 µg/mL of the test compounds. Media control, culture control and appropriate reference drug controls are included. […] Growth is monitored by checking absorbance at 600 nm (A600). […] The samples from MIC and above concentrations are plated for MBC (Minimum Bactericidal Concentration). The samples are diluted 1:10 and plated on LB agar plates. […] The killing kinetics is determined by enumerating survivors at various time points following compound exposure. E. coli cells (~10^7 CFU/ml; A600 of 0.1) are treated with various concentrations (40 µg/mL to 0.3 µg/mL) of compounds in a 96-well microtitre plate. […] Data is expressed as the log10 CFU for each drug treatment.

[2] = test system: E. coli acrF knockout strain; assay: MIC, efflux pump knockout acrF; format: cell-based; conditions: Escherichia coli, read-out: MIC acrF
Method: as §1

[3] = test system: E. coli emrB knockout strain; assay: MIC, efflux pump knockout emrB; format: cell-based; conditions: Escherichia coli, read-out: MIC emrB
Method: as §1

[4] = test system: E. coli emrY knockout strain; assay: MIC, efflux pump knockout emrY; format: cell-based; conditions: Escherichia coli, read-out: MIC emrY
Method: as §1

[5] = test system: E. coli mdfA knockout strain; assay: MIC, efflux pump knockout mdfA; format: cell-based; conditions: Escherichia coli, read-out: MIC mdfA
Method: as §1

[6] = test system: E. coli mdtG knockout strain; assay: MIC, efflux pump knockout mdtG; format: cell-based; conditions: Escherichia coli, read-out: MIC mdtG
Method: as §1

[7] = test system: E. coli hsrA knockout strain; assay: MIC, efflux pump knockout hsrA; format: cell-based; conditions: Escherichia coli, read-out: MIC hsrA
Method: as §1

[8] = test system: E. coli mdtL knockout strain; assay: MIC, efflux pump knockout mdtL; format: cell-based; conditions: Escherichia coli, read-out: MIC mdtL
Method: as §1

[9] = test system: E. coli yciM knockout strain; assay: MIC, efflux pump knockout yciM; format: cell-based; conditions: Escherichia coli, read-out: MIC yciM
Method: as §1

[10] = test system: E. coli mdtK knockout strain; assay: MIC, efflux pump knockout mdtK; format: cell-based; conditions: Escherichia coli, read-out: MIC mdtK
Method: as §1

[11] = test system: E. coli macB knockout strain; assay: MIC, efflux pump knockout macB; format: cell-based; conditions: Escherichia coli, read-out: MIC macB
Method: as §1

[12] = test system: E. coli mdtB knockout strain; assay: MIC, efflux pump knockout mdtB; format: cell-based; conditions: Escherichia coli, read-out: MIC mdtB
Method: as §1

WT E. coli = assay: MIC on WT E. coli in the presence of PAβN; format: cell-based; conditions: Escherichia coli
Method: as §1

Oral pharmacokinetics = format: in vivo, BALB/c mice; parameters: Ke: unit not given here; conditions: for AUC / AUC(0-inf) / AUC(0-t) / Cmax / Tmax / half-life / bioavailability: BALB/c, mouse, plasma; for AUC: po; for AUC(0-inf) / AUC(0-t) / Cmax / Tmax / half-life / Ke / ext AUC: mice
Method: The test substances were formulated in 10% DMSO in 0.25% carboxy methyl cellulose. […] Then 3.6 ml of 0.25% of CMC was added in aliquots to the DMSO solution, with constant grinding using a pestle until a uniform suspension was obtained. […]
At 5 min, 15 min, 30 min, 1 h, 2 h, 4 h, 8 h, and 24 h time points, and prior to sampling, mice were anaesthetized with isoflurane. From each mouse, two blood samples were drawn; the 1st was non-terminal (0.1 ml) and the 2nd terminal, by retro-orbital plexus puncture using heparanised capillary tubes. Blood was collected in 2 ml Eppendorf tubes containing 0.01 ml of 10% K2EDTA as anticoagulant, mixed gently and placed in ice before centrifugation. Blood was centrifuged at 10,000 rpm for 5 min, and plasma was harvested and stored at −80 °C until bioanalysis.
Ultrafast liquid chromatography mass spectrometric method was used for the estimation of test compounds in pre-clinical study samples. The analysis was performed using an API 4000 LC-MS/MS system. The interface used with the API 4000 LC-MS/MS was a Turbo Ion spray. The positive ions were measured in MRM mode. The analyte was extracted using a solid-phase extraction procedure. The data was acquired by and integrated using the Applied Biosystems “Analyst” version 1.5.2 software. Linear regression, with 1/x^2 weighting was used for calibration.
Non-compartmental (NCA) PK analysis was performed using MS Excel. The linear trapezoidal rule was used to estimate the AUC. The NCA analysis was performed using the following equations (3) on mean concentration time data: AUC=Σ[(Ci1+Ci2)/2]∗[ti2−ti1] AUMC=Σ[((Ci1∗ti1)+(Ci2∗ti2))/2)∗(ti2−ti1)] AUCt−∞=Clast/Kel AUC0−∞=AUC0−t+AUCt−∞ AUCextrapolated(%)=[AUCt−∞/AUC0−∞]∗100 where, Ci1 and Ci2 are the concentrations at times ti1 and ti2, respectively. Kel=ln(Cx/Cy)/(ty−tx) where, Kel is the first order elimination rate constant, ln is the natural logarithm, Cx and Cy are the first and last concentrations, respectively on the linear portion of the terminal phase of the concentration-time profile, and ty and tx are the corresponding time points. T1/2=0.693/Kel Cl=Doseiv/AUC0−∞ Vss=(AUMC0−∞/AUC0−∞)∗(Doseiv/AUC0−∞) Cmax and tmax were visually estimated from the mean oral conc-time profile F(%)=(AUCpo/AUCiv)∗(Doseiv/Dosepo)∗100

[13] = test system: Shigella sonnei clinical strain; assay: MIC, Shigella sonnei; format: cell-based
Method: as §1

[14] = test system: Salmonella typhimurium clinical strain; assay: MIC, Salmonella typhimurium; format: cell-based
Method: as §1

E. coli BW24113 = assay: In vitro time kill analysis; format: cell-based; conditions: for time to 99.9% reduction: at 2–4X MIC; for time to total kill (below the limit of quantitation, LOQ): at 8X MIC
Method: as §1, with “plate. At various time intervals (0 to 8 h), 30 μl volumes of treated cultures are serially diluted and plated on LB agar plates.” for “plate.”

E. coli ∆acrB JW0451-2 = assay: Neutropenic thigh infection, E. coli ∆acrB; format: in vivo, BALB/c mice

Compound `Cc1sc(NC(=O)c2ccc([N+](=O)[O-])s2)nc1-c1ccccc1` [compound 7, N-(5-Methyl-4-phenylthiazol-2-yl)-5-nitrothiophene-2-carboxamide] has an MIC [1] of over 40 µg/mL, an MIC [2] of over 40 µg/mL and an MIC [3] of over 40 µg/mL. The MIC [4] was over 40 µg/mL, the MIC [5] was over 40 µg/mL and the MIC [6] was over 40 µg/mL. The MIC [7] was over 40 µg/mL, the MIC [8] was over 40 µg/mL and the MIC [9] was over 40 µg/mL. The MIC [10] was over 40 µg/mL, the MIC [11] was over 40 µg/mL and the MIC [12] was over 40 µg/mL. It also gave an MIC (WT E. coli) of under 0.3 µg/mL.
Compound `O=C(Nc1nc(-c2ccc(F)cc2F)cs1)c1ccc([N+](=O)[O-])s1` [compound 12, N-(4-(2,4-difluorophenyl)thiazol-2-yl)-5-nitrothiophene-2-carboxamide] has an AUC (Oral pharmacokinetics; 10 mg/kg) of 760 ng·h/mL, an AUC(0-inf) (Oral pharmacokinetics; single oral dose 10 mg/kg) of 760 ng·h/mL and an AUC(0-t) (Oral pharmacokinetics; single oral dose 10 mg/kg) of 750 ng·h/mL. The Cmax (Oral pharmacokinetics; single oral dose 10 mg/kg) was 650 ng/mL, the Tmax (Oral pharmacokinetics; single oral dose 10 mg/kg) was 15 min and the half-life (Oral pharmacokinetics; single oral dose 10 mg/kg) was 61.8 min. The bioavailability (Oral pharmacokinetics; oral 10 mg/kg vs IV 2 mg/kg) was 26.7%, the Ke (Oral pharmacokinetics; single oral dose 10 mg/kg) was 0.67 and the “ext AUC” value (Oral pharmacokinetics; single oral dose 10 mg/kg) was 0.5%. For the same compound, the MIC Shigella sonnei [13] was 5 µg/mL (≈ 13.6 µM) and the MIC Salmonella typhimurium [14] was 2.5 µg/mL (≈ 6.81 µM).
With `O=C(Nc1nc(-c2ccc(F)cc2)cs1)c1ccc([N+](=O)[O-])s1` [compound 15, N-(4-(4-Fluorophenyl)thiazol-2-yl)-5-nitrothiophene-2-carboxamide] the “time to 99.9% reduction” value (E. coli BW24113) was 6 to 8 h, the “time to total kill (below the limit of quantitation, LOQ)” value (E. coli BW24113) was 8 h and the AUC (Oral pharmacokinetics; 10 mg/kg) was 750 ng·h/mL. The AUC (Oral pharmacokinetics; 100 mg/kg) was 10300 ng·h/mL, the AUC(0-inf) (Oral pharmacokinetics; single oral dose 10 mg/kg) was 760 ng·h/mL and the AUC(0-t) (Oral pharmacokinetics; single oral dose 10 mg/kg) was 750 ng·h/mL. The Cmax (Oral pharmacokinetics; single oral dose 10 mg/kg) was 1200 ng/mL, the Tmax (Oral pharmacokinetics; single oral dose 10 mg/kg) was 15 min and the half-life (Oral pharmacokinetics; single oral dose 10 mg/kg) was 289 min. The AUC(0-t) (Oral pharmacokinetics; single oral dose 100 mg/kg) was 10300 ng·h/mL, the Cmax (Oral pharmacokinetics; single oral dose 100 mg/kg) was 3800 ng/mL and the Tmax (Oral pharmacokinetics; single oral dose 100 mg/kg) was 15 min. The bioavailability (Oral pharmacokinetics; oral 10 mg/kg vs IV 2 mg/kg) was 16.5%, the bioavailability (Oral pharmacokinetics; oral 100 mg/kg vs IV 2 mg/kg) was 22.6% and the Ke (Oral pharmacokinetics; single oral dose 10 mg/kg) was 0.14. For the same compound, the “ext AUC” value (Oral pharmacokinetics; single oral dose 10 mg/kg) was 1.5%, the “efficacy in thigh infection model (in words)” value (E. coli ∆acrB JW0451-2; E. coli ∆acrB JW0451-2) was “significantly bactericidal” and the “Log10CFU Mean Diff. vs. Untreated Controls” value (E. coli ∆acrB JW0451-2; Study TI-2014-007, ∆acrB JW0451-2, 10mg/kg per oral) was 0.2933 Log10CFU. For the same compound, the “Log10CFU Mean Diff. vs. Untreated Controls” value (E. coli ∆acrB JW0451-2; Study TI-2014-007, ∆acrB JW0451-2, 30mg/kg per oral) was 1.943 Log10CFU, the “Log10CFU Mean Diff. vs. Untreated Controls” value (E. coli ∆acrB JW0451-2; Study TI-2014-007, ∆acrB JW0451-2, 100mg/kg per oral, 6 hours post treatment) was 2.436 Log10CFU and the “Log10CFU Mean Diff. vs. Untreated Controls” value (E. coli ∆acrB JW0451-2; Study TI-2014-008, ∆acrB JW0451-2, 30mg/kg per oral) was 1.497 Log10CFU. The “Log10CFU Mean Diff. vs. Untreated Controls” value (E. coli ∆acrB JW0451-2; Study TI-2014-008, ∆acrB JW0451-2, 100mg/kg per oral) was 2.253 Log10CFU.
With `COc1cc(-c2csc(NC(=O)c3ccc([N+](=O)[O-])s3)n2)ccc1Cl` [compound 20, N-(4-(4-chloro-3-methoxyphenyl)thiazol-2-yl)-5-nitrothiophene-2-carboxamide] the “time to 99.9% reduction” value (E. coli BW24113) was 6 to 8 h, the “time to total kill (below the limit of quantitation, LOQ)” value (E. coli BW24113) was 8 h and the MIC Salmonella typhimurium [14] was 10 µg/mL (≈ 25.3 µM).
